Source: patent publication US12527801B2, “Cell activator of animal cell” (Vitamin C60 BioResearch Corporation, priority 2019, dated 2026)

Columns and labels:
[1] = In vitro skin sensitization test (DPRA method) (OECD TG442C); type: biochemical
[2] = In vitro phototoxicity test (OECD TG432); type: cell-based
[3] = system: Normal human epidermal keratinocytes; test: Microarray test of gene expression (DNA Chip Genopal); type: cell-based; details: for ATP5F1 (internal standard) gene expression, Average / CDH1 (E-cadherin) gene expression, Average / CLDN1 (claudin 1) gene expression, Average / DSC1 (desmocollin 1) gene expression, Average / DSG1 (desmoglein 1) gene expression, Average / EDN1 (endothelin 1) gene expression, Average / FN1 (fibronectin) gene expression, Average / GUSB (internal standard) gene expression, Average / HAS3 (hyaluronan synthase) gene expression, Average / IVL (involucrin) gene expression, Average / KLK5 (kallikrein 5) gene expression, Average / KLK7 (kallikrein 7) gene expression, Average / KRT1 (keratin 1) gene expression, Average / KRT10 (keratin 10) gene expression, Average / PPIA (Cyclophilin) (internal standard) gene expression, Average / PTGES (prostaglandin E synthetase) gene expression, Average / PTGS2 (COX-2) (cyclooxygenase 2) gene expression, Average / RPLPO (internal standard) gene expression, Average / SPINK5 (LEKTI1) (serine protease inhibitor) gene expression, Average / SPRR1B (cornified envelope constituent protein) gene expression, Average / TGM1 (transglutaminase 1) gene expression, Average: 24 h, ratio, control as 1
Method: Normal human epidermal keratinocytes were seeded on 6-well plates at the cell density of 1.5×10^5 cells/well using a HuMedia-KG2 medium. After culturing for 24 hours, the medium was replaced with 3 mL of a HuMedia-KB2 medium comprising AOH at the concentration of 0, 30, 100, and 300 μg/mL. After the replacement, culturing was performed for 24 hours, and the cells were immersed in a QIAzol reagent and lysed. RNA purified using an miRNeasy Mini Kit (QIAGEN) was recovered from the lysate, and a DNA microarray was performed using an mRNA expression analysis chip (DNA Chip Genopal (registered trademark)). The obtained results were analyzed to represent the expression of various genes as a ratio with a correction value of the control as 1, and a significant difference test was performed using the Student's t-test (significance level p of 5%).
In Table 2, it can be determined that when the value is larger than 1, gene expression is increased, and when the p value is smaller than 0.05, there is a significant change with respect to the control (indicated by * in the table). AOH treatment varied the expression of some genes in a concentration-dependent manner.

[4] = system: Normal human epidermal keratinocytes; test: Action of activating epidermal cells (MTT reduction); type: cell-based; details: for Index (%) Mean ± S.D.: 48 h, untreated cells = 100
Method: Normal human epidermal keratinocytes were seeded on 96-well plates at the density of 5.0×10^3 cells/well using a HuMedia KG2 medium (KG2). 24 hours after seeding, the above-mentioned medium was replaced with a HuMedia KB2 medium (KB2) comprising the test sample. AOH and AHX (2-azahypoxanthine) were used as test samples, KG2 as a positive control (P. C.) for the cell activating action was treated instead of the test sample, and cells which were not treated with the samples were used as a negative control. After culturing for 48 hours, the above-mentioned medium was replaced with KB2 comprising 0.2 mg/mL of MTT to perform culturing for 1 hour. After removing the medium, the absorbance at 550 nm and 650 nm of the cell lysate in which 2-propanol was added to lyse the cells was measured. The amount of MTT reduced to blue formazan was obtained by subtracting the absorbance at 650 nm, which was derived from the cell turbidity, from the absorbance at 550 nm. The action of activating epidermal keratinocytes was shown as Index (%), which is a percentage of the absorbance of the cells, which was treated with the test samples, to the absorbance of the cells, which was not treated with the samples (negative control), with the amount of MTT reduced as an index.

[5] = AOH treatment, concentration not given

- gene expression of cyclooxygenase (PTGS2), change in words [3, 5]: significant decrease
- gene expression of prostaglandin E synthetase (PTGES), change in words [3, 5]: significant decrease
- gene expression of transglutaminase 1 (TGM1), change in words [3, 5]: significant increase
SMILES: O=c1[nH]c2nn[nH]c(=O)c2[nH]1 [AOH, 3H-imidazo[4,5-d][1,2,3]triazine-4,6(5H,7H)-dione]
- toxicity in in vitro skin sensitization test (DPRA method) [1]: toxicity was not recognized
- toxicity in in vitro phototoxicity test [2]: toxicity was not recognized
- ATP5F1 (internal standard) gene expression, Average ([3]; 30 μg/mL): 1.00
- CDH1 (E-cadherin) gene expression, Average ([3]; 30 μg/mL): 1.11
- CLDN1 (claudin 1) gene expression, Average ([3]; 30 μg/mL): 1.19
- DSC1 (desmocollin 1) gene expression, Average ([3]; 30 μg/mL): 1.26
- DSG1 (desmoglein 1) gene expression, Average ([3]; 30 μg/mL): 1.09
- EDN1 (endothelin 1) gene expression, Average ([3]; 30 μg/mL): 1.24
- FN1 (fibronectin) gene expression, Average ([3]; 30 μg/mL): 1.12
- GUSB (internal standard) gene expression, Average ([3]; 30 μg/mL): 0.97
- HAS3 (hyaluronan synthase) gene expression, Average ([3]; 30 μg/mL): 1.09
- IVL (involucrin) gene expression, Average ([3]; 30 μg/mL): 1.35
- KLK5 (kallikrein 5) gene expression, Average ([3]; 30 μg/mL): 1.11
- KLK7 (kallikrein 7) gene expression, Average ([3]; 30 μg/mL): 1.12
- KRT1 (keratin 1) gene expression, Average ([3]; 30 μg/mL): 1.46
- KRT10 (keratin 10) gene expression, Average ([3]; 30 μg/mL): 1.19
- PPIA (Cyclophilin) (internal standard) gene expression, Average ([3]; 30 μg/mL): 0.98
- PTGES (prostaglandin E synthetase) gene expression, Average ([3]; 30 μg/mL): 0.77
- PTGS2 (COX-2) (cyclooxygenase 2) gene expression, Average ([3]; 30 μg/mL): 0.90
- RPLPO (internal standard) gene expression, Average ([3]; 30 μg/mL): 1.03
- SPINK5 (LEKTI1) (serine protease inhibitor) gene expression, Average ([3]; 30 μg/mL): 1.15
- SPRR1B (cornified envelope constituent protein) gene expression, Average ([3]; 30 μg/mL): 1.27
- TGM1 (transglutaminase 1) gene expression, Average ([3]; 30 μg/mL): 1.16
- ATP5F1 (internal standard) gene expression, Average ([3]; 100 μg/mL): 1.02
- CDH1 (E-cadherin) gene expression, Average ([3]; 100 μg/mL): 1.09
- CLDN1 (claudin 1) gene expression, Average ([3]; 100 μg/mL): 1.49
- DSC1 (desmocollin 1) gene expression, Average ([3]; 100 μg/mL): 1.28
- DSG1 (desmoglein 1) gene expression, Average ([3]; 100 μg/mL): 1.13
- EDN1 (endothelin 1) gene expression, Average ([3]; 100 μg/mL): 1.39
- FN1 (fibronectin) gene expression, Average ([3]; 100 μg/mL): 1.15
- GUSB (internal standard) gene expression, Average ([3]; 100 μg/mL): 1.00
- HAS3 (hyaluronan synthase) gene expression, Average ([3]; 100 μg/mL): 1.27
- IVL (involucrin) gene expression, Average ([3]; 100 μg/mL): 1.49
- KLK5 (kallikrein 5) gene expression, Average ([3]; 100 μg/mL): 1.16
- KLK7 (kallikrein 7) gene expression, Average ([3]; 100 μg/mL): 1.24
- KRT1 (keratin 1) gene expression, Average ([3]; 100 μg/mL): 1.60
- KRT10 (keratin 10) gene expression, Average ([3]; 100 μg/mL): 1.33
- PPIA (Cyclophilin) (internal standard) gene expression, Average ([3]; 100 μg/mL): 0.96
- PTGES (prostaglandin E synthetase) gene expression, Average ([3]; 100 μg/mL): 0.79
- PTGS2 (COX-2) (cyclooxygenase 2) gene expression, Average ([3]; 100 μg/mL): 0.93
- RPLPO (internal standard) gene expression, Average ([3]; 100 μg/mL): 1.06
- SPINK5 (LEKTI1) (serine protease inhibitor) gene expression, Average ([3]; 100 μg/mL): 1.28
- SPRR1B (cornified envelope constituent protein) gene expression, Average ([3]; 100 μg/mL): 1.42
- TGM1 (transglutaminase 1) gene expression, Average ([3]; 100 μg/mL): 1.29
- ATP5F1 (internal standard) gene expression, Average ([3]; 300 μg/mL): 1.01
- CDH1 (E-cadherin) gene expression, Average ([3]; 300 μg/mL): 1.16
- CLDN1 (claudin 1) gene expression, Average ([3]; 300 μg/mL): 1.43
- DSC1 (desmocollin 1) gene expression, Average ([3]; 300 μg/mL): 1.59
- DSG1 (desmoglein 1) gene expression, Average ([3]; 300 μg/mL): 1.15
- EDN1 (endothelin 1) gene expression, Average ([3]; 300 μg/mL): 1.75
- FN1 (fibronectin) gene expression, Average ([3]; 300 μg/mL): 1.22
- GUSB (internal standard) gene expression, Average ([3]; 300 μg/mL): 0.97
- HAS3 (hyaluronan synthase) gene expression, Average ([3]; 300 μg/mL): 1.60
- IVL (involucrin) gene expression, Average ([3]; 300 μg/mL): 1.75
- KLK5 (kallikrein 5) gene expression, Average ([3]; 300 μg/mL): 1.24
- KLK7 (kallikrein 7) gene expression, Average ([3]; 300 μg/mL): 1.17
- KRT1 (keratin 1) gene expression, Average ([3]; 300 μg/mL): 2.07
- KRT10 (keratin 10) gene expression, Average ([3]; 300 μg/mL): 1.44
- PPIA (Cyclophilin) (internal standard) gene expression, Average ([3]; 300 μg/mL): 0.99
- PTGES (prostaglandin E synthetase) gene expression, Average ([3]; 300 μg/mL): 0.56
- PTGS2 (COX-2) (cyclooxygenase 2) gene expression, Average ([3]; 300 μg/mL): 0.79
- RPLPO (internal standard) gene expression, Average ([3]; 300 μg/mL): 1.08
- SPINK5 (LEKTI1) (serine protease inhibitor) gene expression, Average ([3]; 300 μg/mL): 1.38
- SPRR1B (cornified envelope constituent protein) gene expression, Average ([3]; 300 μg/mL): 1.60
- TGM1 (transglutaminase 1) gene expression, Average ([3]; 300 μg/mL): 1.57
- gene expression of E-cadherin (CDH1), change in words [3, 5]: significant increase
- gene expression of SPRR1B, change in words [3, 5]: significant increase
- gene expression of claudin 1 (CLDN1), change in words [3, 5]: significant increase
- gene expression of desmocollin 1 (DSC1), change in words [3, 5]: significant increase
- gene expression of desmoglein 1 (DSG1), change in words [3, 5]: significant increase
- gene expression of endothelin 1 (EDN1), change in words [3, 5]: significant increase
- gene expression of fibronectin (FN1), change in words [3, 5]: slight increase
- gene expression of hyaluronan synthase (HAS3), change in words [3, 5]: significant increase
- gene expression of involucrin (IVL), change in words [3, 5]: significant increase
- gene expression of kallikrein 5 (KLK5), change in words [3, 5]: significant increase
- gene expression of kallikrein 7 (KLK7), change in words [3, 5]: significant increase
- gene expression of keratin 1 (KRT1), change in words [3, 5]: significant increase
- gene expression of keratin 10 (KRT10), change in words [3, 5]: significant increase
- gene expression of serine protease inhibitor (SPIMK5), change in words [3, 5]: significant increase
- Index (%) Mean ± S.D. ([4]; 3.9 μg/mL): 105.7 ± 4.5%
- Index (%) Mean ± S.D. ([4]; 7.8 μg/mL): 108.4 ± 4%
- Index (%) Mean ± S.D. ([4]; 15.6 μg/mL): 108.7 ± 5.6%
- Index (%) Mean ± S.D. ([4]; 31.3 μg/mL): 109.7 ± 5.2%
- Index (%) Mean ± S.D. ([4]; 62.5 μg/mL): 102.3 ± 2.8%
- Index (%) Mean ± S.D. ([4]; 125 μg/mL): 98.6 ± 0.7%
- Index (%) Mean ± S.D. ([4]; 250 μg/mL): 94.2 ± 1.7%
- Index (%) Mean ± S.D. ([4]; 500 μg/mL): 91.9 ± 0.9%
- cytotoxicity compared ([4]; AOH versus AHX): lower cytotoxicity than AHX
- change in Index ([4]; concentrations of 7.8 to 31.3 μg/mL): significant increase in Index
- proliferative effect / cell activating action ([4]; epidermal keratinocytes): has the cell activating action
